The text below walks through data of patent US8568736B2, “Polypeptide derivatives of parathyroid hormone (PTH)” (The General Hospital Corporation, priority 1999, dated 2013).

No end group written: not given here.

For one assay, the target named is T1, hPTH-2 Receptor (Homo sapiens, UniProt P49190).
T1 construct: expressed in transfected cells; host or cells: LLC-PK1 porcine kidney cells (clone given as hPR2-20, hPR2-22, LLC-P2R-22 or P2R-22)
The assay is described as follows: cAMP stimulation in LLC-P2R-22 cells (LLC-PK1 stably transfected with hPTH-2 receptor). Format: cell-based. As to conditions: LLC-P2R-22 cells (hPTH-2 Receptor). The text has this:
(§1) Stably transfected derivatives of the porcine kidney cell line LLC-PK1, HKRK-B7 (Takasu, H., et al., J. Bone Miner. Res. 14:11-20 (1999)) and hPR2-20, express the human PTH-1 and human PTH-2 receptors respectively. The HKRK-B7 LLC-PK1 cell line expresses the hPTH-1 receptor at ˜1×10^6 receptors/cell (Takasu, H., et al., J. Bone Miner. Res. 14:11-20 (1999)), and the hPR2-22 LLC-PK1 cell line expresses the hPTH-2 receptor at ˜0.8×10^6 receptors/cell (provided by H. Takasu and F. R. Bringhurst, Endocrine Unit, Massachusetts General Hospital).
(§2) Stimulation of cells with peptide analogs was performed in 24-well plates. Cells were rinsed with 0.5 mL of binding buffer and treated with 200 μL of cAMP assay buffer (Dulbecco's modified Eagle's medium containing 2 mM 3-isobutyl-1-methylxanthine, 1 mg/mL bovine serum albumin, 35 mM Hepes-NaOH, pH 7.4) and 100 μL of binding buffer containing varying amounts of peptide analog (final volume=300 μL). The medium was removed after incubation for 1 h at room temperature, and the cells were frozen (−80° C.), lysed with 0.5 mL 50 mM HCl, and refrozen (−80° C.). The cAMP content of the diluted lysate was determined by radioimmunoassay. Where possible, cAMP EC50 and Maximum response values were determined using nonlinear regression (see below).
(§3) Intracellular cAMP accumulation may be measured as described by Abou-Samra et al., J. Biol. Chem. 262:1129, 1986) or other methods known to those of skill in the art. Intracellular cAMP is extracted by thawing the cells in 1 ml of 50 mM HCl and analyzed by a specific radioimmunoassay using an anti-cAMP antibody (e.g., Sigma, St. Louis, Mo.). A cAMP analog (2′-O-monosuccinyl-adenosine 3′:5′-cyclic monophosphate tyrosyl methyl ester, obtained from Sigma) which is used as a tracer for cAMP is iodinated by the chloramine T method. Free iodine is removed by adsorbing the iodinated cAMP analog onto a C18 Sep-pak cartridge (Waters, Milford, Mass.). After washing with dH2O, the iodinated cAMP analog is eluted from the Sep-pak Cartridge with 40% acetonitrille (ACN) and 0.1% trifluoroacetic acid (TFA). The iodinated cAMP analog is lyophilized, reconstituted in 1 ml 0.1% TFA, and injected into a C18 reverse phase HPLC column (Waters). The column is equilibrated with 10% ACN in 0.1% TFA, and eluted with gradient of 10-30% ACN in 0.1% TFA. This allows separation of the mono-iodinated cAMP analog from the non-iodinated cAMP analog. The tracer is stable for up to 4 months when stored at −20° C. The standard used for the assay, adenosine 3′:5′-cyclic monophosphate, is purchased from Sigma. Samples (1-10 µl of HCl extracts) or standards (0.04-100 fmol/tube) are diluted in 50 mM Na-acetate (pH 5.5), and acetylated with 10 μl of mixture of triethylamine and acetic anhydride (2:1 vol:vol). After acetylation, cAMP antiserum (100 μl) is added from a stock solution (1:4000) made in PBS (pH 7.4), 5 mM EDTA and 1% normal rabbit serum. The tracer is diluted in PBS (pH 7.4) with 0.1% BSA, and added (20,000 cpm/tube). The assay is incubated at 4° C. overnight. The bound tracer is precipitated by adding 100 μl of goat anti-rabbit antiserum (1:20 in PBS) and 1 ml of 7% polyethyleneglycol (MW 5000-6000), centrifuging at 2000 rpm for 30 min. at 4° C. The supernatant is removed and the bound radioactivity is counted in a gamma-counter (Micromedic). To compute the cAMP data, logit calculations were performed in Excel spreadsheets. Typically, the assay sensitivity is 0.1 fmol/tube, and the standard concentration that displaces 50% of tracer is 5 fmol/tube.
(§4) All calculations were performed using Microsoft Excel. Nonlinear regression analysis of cAMP stimulation data was performed using parameters, defined as the Minimum, Maximum, Emax, midpoint (EC50), and slope of the response curve. The predicted response (yp) for a given dose (x) of peptide was calculated using the following equation: yp=Min+[(Max−Min)/(1+(EC50/x)^slope)]. […]

Assay [1] addresses T2, PTH-1 receptor (Homo sapiens, UniProt Q03431).
T2 sequence (Q03431 27-593): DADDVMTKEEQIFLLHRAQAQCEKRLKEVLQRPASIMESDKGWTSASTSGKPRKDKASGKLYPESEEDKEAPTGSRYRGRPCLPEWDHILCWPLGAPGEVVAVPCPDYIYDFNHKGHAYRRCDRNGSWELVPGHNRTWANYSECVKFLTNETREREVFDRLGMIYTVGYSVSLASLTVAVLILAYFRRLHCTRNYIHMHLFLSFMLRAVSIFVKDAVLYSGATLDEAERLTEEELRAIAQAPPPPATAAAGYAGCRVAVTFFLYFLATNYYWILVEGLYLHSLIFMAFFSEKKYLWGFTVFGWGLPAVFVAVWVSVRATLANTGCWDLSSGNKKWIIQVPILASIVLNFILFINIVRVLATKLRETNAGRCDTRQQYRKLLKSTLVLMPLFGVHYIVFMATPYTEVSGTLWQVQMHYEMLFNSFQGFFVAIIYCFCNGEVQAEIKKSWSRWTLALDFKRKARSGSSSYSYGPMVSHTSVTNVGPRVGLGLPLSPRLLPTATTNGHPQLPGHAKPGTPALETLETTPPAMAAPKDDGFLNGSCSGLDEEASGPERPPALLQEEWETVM
The assay is described as follows: cAMP stimulation in HKRK-B7 cells (LLC-PK1 stably transfected with hPTH-1 receptor). Format: cell-based. More on the design: expressed in transfected cells; host or cells: LLC-PK1 porcine kidney cells, clone HKRK-B7. As to conditions: for cAMP signaling activity (in words) / Emax: HKRK-B7 cells; for cAMP signaling activity (in words): dose-response; for Emax: Emax constrained to ±1 SD of rPTH(1-34) response at 100 nM.
Source text: as §1, §2, §3, §4

For assay [2], the target named is T3, rat PTH-1 receptor (endogenous, ROS 17/2.8 cells) (Rattus norvegicus, UniProt P25961).
T3 construct: The rat osteoblastic cell line ROS 17/2.8; endogenous in cells; host or cells: ROS 17/2.8 rat osteoblastic cells
T3 sequence (P25961 27-591): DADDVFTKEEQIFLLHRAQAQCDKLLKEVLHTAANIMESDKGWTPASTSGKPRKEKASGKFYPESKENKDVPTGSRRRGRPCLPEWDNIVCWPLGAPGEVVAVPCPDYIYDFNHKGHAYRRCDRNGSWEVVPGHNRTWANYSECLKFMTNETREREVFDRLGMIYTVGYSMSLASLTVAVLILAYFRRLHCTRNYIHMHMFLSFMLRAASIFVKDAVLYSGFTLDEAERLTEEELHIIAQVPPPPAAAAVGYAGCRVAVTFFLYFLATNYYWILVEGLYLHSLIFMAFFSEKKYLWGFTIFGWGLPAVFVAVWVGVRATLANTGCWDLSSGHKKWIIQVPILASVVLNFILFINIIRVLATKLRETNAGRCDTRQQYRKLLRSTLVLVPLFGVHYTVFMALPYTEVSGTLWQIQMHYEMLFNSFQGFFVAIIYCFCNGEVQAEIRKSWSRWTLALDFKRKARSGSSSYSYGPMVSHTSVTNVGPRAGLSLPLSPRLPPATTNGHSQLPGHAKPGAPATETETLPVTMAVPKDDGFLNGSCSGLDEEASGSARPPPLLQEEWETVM
The assay can be described thus: cAMP response in osteoblastic ROS 17/2.8 cells. The class given is cell-based. As to conditions: ROS 17/2.8 cells. The procedure: The rat osteoblastic cell line ROS 17/2.8 (Majeska, R. J., et al, Endocrinology 107:1494-1503 (1980)) expresses endogenous PTH-1 receptors at levels of 80,000 per cell and the human osteoblastic cell line, SAOS-2, express endogenous PTH-1 receptors at levels of ˜30,000 per cell.
as §2
All calculations were performed using Microsoft Excel. Nonlinear regression analysis of cAMP stimulation data was performed using parameters, defined as the Minimum, Maximum, Emax, midpoint (EC50), and slope of the response curve. The predicted response (yp) for a given dose (x) of peptide was calculated using the following equation: yp=Min+[(Max−Min)/(1+(EC50/x)^slope)]. The initial parameter values were estimated from the primary data, and the Excel “Solver function” was then used to vary the four parameters in order to minimize the differences between the predicted and actual responses (least-squares method) (Bowen, W., & Jerman, J., Trends in Pharmacol. Sci. 16:413-417 (1995)). The statistical significance between two data sets was determined using a one-tailed Student's t-test, assuming unequal variances for the two sets.

Assay [3] deals with T2, PTH-1 receptor. More on the design: expressed in transfected cells; host or cells: LLC-PK1 porcine kidney cells, clone HKRK-B7. As to conditions: HKRK-B7 cells; Luck et al. 1999; cited from earlier work.
The subject of assay [4] is truncated PTH-1 receptor rP1R-ΔNt. As to conditions: truncated rat PTH receptor vs intact rPTH-1 receptor; Luck et al. 1999; cited from earlier work.
For assay [5] the following is noted: subcutaneous, in combination with oral estrogen, postmenopausal osteoporosis; cited from earlier work.
For assay [6], the target named is T2, PTH-1 receptor. As to conditions: literature; cited from earlier work.
For assay [7], the target named is T4, cloned rat PTH-1 receptor (Rattus norvegicus, UniProt P25961).
T4 construct: host or cells: CHO cells
T4 sequence (P25961 27-591): T3 sequence (P25961 27-591)
As to conditions: CHO cells, Azurani 1996; cited from earlier work.

The subject of another assay is rat renal membranes. As to conditions: Rosenblatt 1981; cited from earlier work.

T1 sequence (P49190 25-550): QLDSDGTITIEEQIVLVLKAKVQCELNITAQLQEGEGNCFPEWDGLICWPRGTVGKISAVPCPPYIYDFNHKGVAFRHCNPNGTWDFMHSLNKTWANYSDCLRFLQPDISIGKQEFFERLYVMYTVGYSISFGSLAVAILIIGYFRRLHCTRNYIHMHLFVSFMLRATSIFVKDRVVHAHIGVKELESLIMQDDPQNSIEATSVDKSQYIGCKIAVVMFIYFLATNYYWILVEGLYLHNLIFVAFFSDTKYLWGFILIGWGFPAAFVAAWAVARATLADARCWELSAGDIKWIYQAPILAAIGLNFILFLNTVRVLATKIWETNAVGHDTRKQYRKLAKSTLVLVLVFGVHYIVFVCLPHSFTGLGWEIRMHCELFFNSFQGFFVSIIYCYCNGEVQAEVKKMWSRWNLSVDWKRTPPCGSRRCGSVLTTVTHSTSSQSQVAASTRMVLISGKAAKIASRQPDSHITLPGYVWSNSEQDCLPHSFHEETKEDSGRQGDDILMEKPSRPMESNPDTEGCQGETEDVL

“AVAEIQLMHARA-NH2 [compound 5, AlaValAlaGluIleGlnLeuMetHisAlaArgAla-amide]” returned an Emax at hPTH-2 Receptor of 501 picomole/well. On PTH-1 receptor [1], the “cAMP signaling activity (in words)” value was “signaling activity was readily observed” and the Emax was 238 ± 9 picomole/well. At hPTH-2 Receptor, “AVAEIQLMHARAK-NH2 [compound 4, AlaValAlaGluIleGlnLeuMetHisAlaArgAlaLys-amide]” registered an Emax of 501 picomole/well. Also, on PTH-1 receptor [1], the “cAMP signaling activity (in words)” value is on record as “signaling activity was readily observed” and the Emax worked out at 239 ± 7 picomole/well. Consider “AVAEIQLMHARAKW-NH2 [Peptide #2, AlaValAlaGluIleGlnLeuMetHisAlaArgAlaLysTrp-amide]”, for which the Emax in [2] amounted to 382 picomole/well; on PTH-1 receptor [1], 262 ± 9 picomole/well. The “fold more potent than native PTH(1-14)” value on PTH-1 receptor [1] (LLC-PK1 cells stably expressing hPTH-1 receptor, cAMP) was 220 fold. On to “AVAEIQLMHQRAKH-NH2 [compound 3, AlaValAlaGluIleGlnLeuMetHisGlnArgAlaLysHis-amide]”, for which the Emax at PTH-1 receptor [1] stood at 235 ± 3 picomole/well. Turning to “PTH(1-9) (AVSEIQLMH-NH2; UniProt P04089 32-40, looked up, fragment) [native rat PTH fragment analog]”, in the assay with PTH-1 receptor [3], the “cAMP response of native rat PTH fragments (in words)” value (“cAMP response … (in words)” below) is reported as “little or no cAMP response”.

Regarding “PTH(1-10) (AVSEIQLMHN-NH2; UniProt P04089 32-41, looked up, fragment) [native rat PTH fragment analog]”, the “cAMP response … (in words)” value with PTH-1 receptor [3] is given as “little or no cAMP response”. As for “PTH(1-11) (AVSEIQLMHNL-NH2; UniProt P04089 32-42, looked up, fragment) [native rat PTH fragment analog]”, the “cAMP response … (in words)” value with PTH-1 receptor [3] is given as “little or no cAMP response”. On to “PTH(1-12) (AVSEIQLMHNLG-NH2; UniProt P04089 32-43, looked up, fragment) [native rat PTH fragment analog]”, for which the “cAMP response … (in words)” value with PTH-1 receptor [3] was “little or no cAMP response”.

Regarding “PTH(1-13) (AVSEIQLMHNLGK-NH2; UniProt P04089 32-44, looked up, fragment) [native rat PTH fragment analog]”, in the assay with PTH-1 receptor [3], the “cAMP response … (in words)” value is “little or no cAMP response”.

Regarding PTH(1-34), in [4], the “fold weaker with the truncated receptor than with the intact receptor” value is recorded as 1000 fold. Further, the bone density result in assay [5] is on record as “increases in bone density”. Consider PTH(15-34), for which the cAMP response result with PTH-1 receptor [6] was “inactive”. Turning to “PTHrP(1-16) (AVSEHQLLHDKGKSIQ; Parathyroid hormone-related protein; UniProt P12272 37-52, looked up, fragment) [short NH2-terminal PTHrP peptide from the literature]”, the AC activity result in assay [7] is “inactive”. Turning to [A3,Q10]rPTH(1-10) (AVAEIQLMHQ-NH2), in the assay with PTH-1 receptor [1], the “cAMP signaling activity (in words)” value is listed as “elicited some activity”.

On to “bPTH(1-12) (AVSEIQFMHNLG; Parathyroid hormone; UniProt P01268 32-43, looked up, fragment) [short NH2-terminal PTH peptide from the literature]”, for which the adenyl cyclase activity entry in the assay on rat renal membranes is “inactive”.
